The text below walks through data of article PMC12648443, “Modifications of NU-9, a potent protein aggregation inhibitor. Properties and activity in a cellular model of amyotrophic lateral sclerosis” (Bioorganic chemistry, 2025).

For series [1] the following is noted: pig, PAMPA, 18 h, 250 μM, pH 7.5. On the technique in general: The PAMPA barrier holds no transporters, so it reflects passive diffusion.
Experimental: (§3) A solution of 1 × PBS (pH 7.5) was initially prepared by the dilution of a commercially available 10 × PBS solution. […] A solution of porcine brain lipid (PBL) (20 mg/mL in dodecane) was prepared, and 4 μL of this solution was used to coat the filters on the bottom of the PAMPA donor plates (Sigma Aldrich #MAIPNTR10). After air drying for 20 min, the donor plate wells were charged with 250 μL of the solutions of the test compounds or the controls. The donor plate was then placed over the acceptor plate (Sigma Aldrich #MATRNPS50), in which wells were previously filled with 1 × PBS (2 % DMSO v/v) solution. The PAMPA sandwich was closed with parafilm and incubated at 25 °C for 18 h in a humidity-saturated atmosphere with orbital agitation. […] The UV spectra (250–400 nm) of each well were acquired on a BioTek Synergy H1 MD plate reader equipped with a monochromator at room temperature.
(§4) CA(t) is the concentration of the compounds at the final time of incubation on the acceptor well; CD(0) and CD(t) are the concentration of the compounds at the initial time of incubation and at the final time of incubation on the donor well, respectively.
Series [2] deals with MG132-induced mutant SOD1 intracellular aggregation in PC12-SOD1^G85R YFP cells. The series is described as follows: Protection against MG132-induced mut-SOD1 intracellular aggregation (fluorescence microscopy). The format is cell-based. On the procedure: The PC12 Tet-Off-SOD1^G85R YFP cells were cultured in DMEM media supplemented with 10 % horse serum, 5 % Tet-approved FBS, 1 % Penstrep, 1× L-glutamine, 200 μg/mL hygromycin, 100 μg/mL G418, with 1 μg/mL Doxycycline and were incubated at 37 °C in humidified air with […] until 90–95 % confluency. To induce the expression of SOD1^G85R YFP, the Doxycycline was removed at least 4 days before the experiment. To remove the Doxycycline, the media was removed, and the cells were washed 3 times with 1xPBS. The cells were then cultured in standard culture media without Doxycycline. To set up the assay, the cells were then seeded into 96-well cell culture plates (Greiner Bio-One Catalog #655090) at a concentration of 50,000 cells/well with a final volume of 100 μL/well and incubated in the CO2 incubator at 37 °C for 24 h. The media were removed from the cells and replaced with 100 μL of media containing 0.1 % DMSO or compounds, and incubated in the CO2 incubator at 37 °C for 6 h. The media were then replaced with fresh 100 μL of media containing the diluted compounds with 0.7 μM (−)-MG-132, and the plates were incubated for 72 h under culture conditions. After 72 h, the cells were stained with Hoescht 33,342 (55 μg/mL, 10 μL/well) and imaged (lex = 358, 513 nm) using a Molecular Devices ImageXpress Micro Confocal High-Content Imaging System equipped with a 40× objective. […] Image binning was set to 2. DAPI fluorescence was captured using an exposure time of 300 ms, and FITC fluorescence was captured using an exposure time of 400 ms. A 13-plane z-series was acquired for each field of view with a step size of 3 μm. For each condition, 2 sets of 9 images were generated in a 3 × 3 grid to separately image the SOD1^G85R YFP proteins and the nuclei stained with Hoescht 33,342. Image analysis was performed with MetaXpress software (Molecular Devices) using the Transfluor module. Parameters for puncta detection (aggregates) were set with a minimum pit width of 2 μm and a maximum pit width of 5 μm. Signal intensity thresholds were defined as 700 grayscale units above the local background. The analysis provided the average area of each cell that is covered by puncta (pit/cell), which are indicated by bright green spots on the SOD1^G85RYFP image set.
The assay was performed in triplicate for each condition tested, and wells containing the media with vehicle (0.1 % DMSO) or (−)-MG-132 alone were used as controls representing the minimum and maximum aggregate formation. […] The data for EC50 determination was treated with Prism and fitted using a semi-logarithmic curve for determination of the EC50 values of NU9 and compounds 4, 6, 20 and 21.

Details of series [3]: method as in PMID 33634973. Conditions: mouse microsomes; cited from earlier work.
Series [4] has as its system primary hippocampal neurons. Also on record: method as in PMID 40030015. Conditions: cited from earlier work.
Details of series [5]: method as in PMID 33634973. Conditions: human microsomes; cited from earlier work.
Series [6] can be described thus: Parallel artificial membrane permeability assay - blood brain barrier (PAMPA-BBB). Conditions: pig, PAMPA, pH 7.5.
Experimental: as §3, §4
Series [7] is described as follows: In vitro cytotoxicity, CellTiter-Glo, HEK293. It is filed as cell-based. Conditions: human, HEK293 cells. How it is done:
(§1) The HepG2 and HEK293 cells were cultured in DMEM media supplemented with 10 % FBS (heat-inactivated), 1 % Pen-strep, and L-glutamine and incubated at 37 °C in humidified air with 5 % CO2 until 85–90 % confluency. The PC12 Tet-Off-SOD1^G85R YFP cells were maintained as described in 4.2. On the day before the experiments, the cells were transferred to white bottom 96 well plates (Greiner cat. 655,083) at a concentration of 50,000 cells/100 μL of media in each well and incubated overnight at 37 °C. Stock solutions of the compounds (30 mM) in DMSO were prepared and then diluted in media to obtain the six final working solutions starting at 30 μM, and serial dilutions were obtained with the lowest concentration at 0.25 μM. The media were removed and fresh media containing the compounds or the vehicle DMSO (0.1 % v/v) were transferred to the plates containing HepG2 and HEK293 cells and the plates were incubated for 24 or 48 h at 37 °C. The PC12 Tet-Off-SOD1^G85R YFP cells compound treatment was performed as described in section 4.2 and using a 9-point 2-fold serial dilution of the compounds starting at 15 μM and the lowest concentration at 0.05 μM. After incubation, the plates were cooled to room temperature and 25 μL of CellTiter-Glo® solution was added to each well. The plates were loaded into a BioTek Synergy H1 MD plate reader and shaken for 2 min, stabilized for 10 min without shaking, and then the luminescence values were read for each well (luminescence integration step 1 ms). Wells containing media with the vehicle DMSO with or without cells were used as controls to represent, respectively, the maximum viability and the lowest viability (background signal) for the cytotoxicity studies with HepG2 and HEK293 cell lines. The viability values for the assay performed with the PC12 Tet-Off-SOD1^G85R YFP cells were normalised for the vehicle (0.1 % DMSO) and (−)-MG-132 alone treatments, which represented respectively the […] viability for the assay.
(§2) The results are presented as an average of three independent experiments, each performed in triplicate, for the cytotoxicity experiments performed with HepG2 and HEK293 cells. The results for the protective screening with the PC12 Tet-Off-SOD1^G85R YFP cells are presented as an average of four replicates.
For orientation: In ATP-based viability assays light output follows the ATP content of the culture.

In series [8] the test system is PC12-SOD1^G85R YFP cells co-treated with MG132. The series is described as follows: Viability screening against MG132-induced toxicity, CellTiter-Glo. The format is cell-based. Conditions: PC12-SOD1^G85R YFP cells co-treated with MG132 and the compounds; read-out: PC12-SOD1^G85R EC50, in vitro viability screening (protection against MG132-induced toxicity). How it is done: as §1, with “assay. […]” for “assay.”

The next series concerns HepG2 cells. Kind of series: In vitro cytotoxicity, CellTiter-Glo, HepG2. It is filed as cell-based. Conditions: cytotoxicity EC50 (HepG2, HEK293) versus PC12-SOD1^G85R EC50. On the procedure: as §1, §2
Series [9] in a line: In vitro cytotoxicity, CellTiter-Glo, HepG2. Conditions: human, HepG2 cells. The format is cell-based. How it is done:
as §1, §2

Series [10] has as its system cells containing SOD1 mutations associated with ALS. Also on record: method as in PMID 21073276, PMID 22189273, PMID 22837812. Conditions: Fig. 1, evolution of CHD series; cited from earlier work.
Series [11] concerns primary hippocampal neuronal cells. Also on record: method as in PMID 40030015. Conditions: cited from earlier work.

The structures appear in SMILES notation.

What is called EC50 is the concentration giving half of the maximal effect. The Papp is the rate of passage across a membrane or cell layer, normalised by area and donor concentration. Take `C[C@H](Oc1cc(C(F)(F)F)cc(C(F)(F)F)c1)C1CC(=O)CC(=O)C1` [NU-9]: the “Log Pe” value in [1] is on record as −5.16. The 50% effective concentration (EC50) is 2.52 ± 0.38 µM in series [2] (PC12-SOD1^G85R YFP cells, 0.7 μM MG132, 72 h, Inactive = no decrease of aggregates at 10 μM vs vehicle); 3.37 ± 0.26 µM in series [8]; 0.3 µM in series [10]. Further, in [2] (at 10 μM, 72 h), the “decrease in MG132-induced SOD-1^G85R aggregate formation” value was “marked decrease”. The “t1/2 (mouse)” value in series [3] is reported as 52^27 min. The LC3II puncta entry in series [4] is listed as “capable of increasing LC3II puncta”. In addition, in series [5], the “t1/2 (human)” value is listed as 74^27 min. In series [6], this compound returned a Papp at 18 h, 250 μM of 6.98 ± 0.14 ×10⁻⁶ cm/s. The viability at 24 h, 30 μM is 85.7% in [7] (30 μM, 24 h, relative to untreated cells, read-out: Percentage of viable cells observed at 30 μM treatment, HEK293) and 93.5% in [9] (30 μM, 24 h, relative to untreated cells, read-out: Percentage of viable cells observed at 30 μM treatment, HepG2). The viability at 48 h, 30 μM is 89.6% in series [7] (30 μM, 48 h, relative to untreated cells, read-out: Percentage of viable cells observed at 30 μM treatment, HEK293) and 96.3% in series [9] (30 μM, 48 h, relative to untreated cells, read-out: Percentage of viable cells observed at 30 μM treatment, HepG2). In addition, the EC50 at 24 h in series [7] (cytotoxicity, 24 h) was more than 30 µM; in series [9] (cytotoxicity, 24 h), more than 30 µM. Also, the EC50 at 48 h was more than 30 µM in series [7] (cytotoxicity, 48 h) and more than 30 µM in series [9] (cytotoxicity, 48 h). Also, the “EC50 Fold difference” value in the series on HepG2 cells is more than 12. The Amyloid-beta oligomer build-up entry in [11] is “capable of reducing Amyloid-beta oligomer build-up”.
